Experimental data from ChEMBL document CHEMBL1201862, “PubChem BioAssay data set” (2004).
Calls of active or inactive are those of the source. Rule as the data show it: actives have a measured IC50 and inactives only a lower limit.

These molecules were tested against Envelope glycoprotein gp160 (Human immunodeficiency virus 1, UniProt Q6QLK5) (assay: inhibitors of HIV fusion peptide binding, primary screen, biochemical, uHTS, fluorescence dequenching (AID 1986)).
Chain of Envelope glycoprotein gp160 (Q6QLK5 whole entry, the tested form may be a part): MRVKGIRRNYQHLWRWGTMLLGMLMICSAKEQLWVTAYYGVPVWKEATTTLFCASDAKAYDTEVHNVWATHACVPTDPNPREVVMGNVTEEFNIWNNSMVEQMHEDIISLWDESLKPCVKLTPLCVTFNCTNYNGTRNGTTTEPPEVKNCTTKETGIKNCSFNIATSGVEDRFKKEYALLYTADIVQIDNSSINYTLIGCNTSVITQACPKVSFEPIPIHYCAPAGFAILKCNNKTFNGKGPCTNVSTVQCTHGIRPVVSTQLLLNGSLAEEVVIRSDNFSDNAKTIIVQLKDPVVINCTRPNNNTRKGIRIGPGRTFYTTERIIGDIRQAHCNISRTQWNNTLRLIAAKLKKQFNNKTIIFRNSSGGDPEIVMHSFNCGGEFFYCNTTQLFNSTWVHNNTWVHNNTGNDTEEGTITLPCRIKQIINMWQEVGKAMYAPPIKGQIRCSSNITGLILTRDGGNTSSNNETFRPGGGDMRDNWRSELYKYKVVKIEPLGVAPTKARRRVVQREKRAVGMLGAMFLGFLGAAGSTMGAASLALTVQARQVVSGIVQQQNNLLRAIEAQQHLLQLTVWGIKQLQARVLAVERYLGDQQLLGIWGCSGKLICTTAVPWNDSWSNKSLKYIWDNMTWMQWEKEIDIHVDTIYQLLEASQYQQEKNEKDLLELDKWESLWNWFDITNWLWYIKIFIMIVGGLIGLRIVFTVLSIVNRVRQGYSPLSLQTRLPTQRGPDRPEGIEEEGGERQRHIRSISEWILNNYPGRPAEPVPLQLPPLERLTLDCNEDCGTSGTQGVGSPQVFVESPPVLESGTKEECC
In the case of `Cc1ccc(NS(=O)(=O)c2ccc(N/N=C/c3ccccc3OCC(=O)O)c([N+](=O)[O-])c2)c(C)c1`, the IC50 is reported as 13.8 µM (active). In the case of `COc1cc(/C=C2\S/C(=N\c3ccccc3)N(CCc3c[nH]c4ccccc34)C2=O)ccc1OC(C)C(=O)O` (stereo not drawn), the IC50 is reported as 16.9 µM (active). For `COc1ccccc1N1N=C(C(=O)c2ccccc2)C2C(=O)N(c3ccc(Br)cc3)C(=O)C21` (stereo not drawn), the IC50 was 14.6 µM (active).
